Measurements published in ChEMBL document CHEMBL5230117, “Chalcones: Unearthing their therapeutic possibility as monoamine oxidase B inhibitors” (Eur J Med Chem, 2020).
One block for each compound: values may come before it.

Experiments:
[1] = target: T1, Amine oxidase [flavin-containing] B (Homo sapiens, UniProt P27338); test: Inhibition of human MAO-B using benzylamine as substrate
T1 sequence (P27338 whole entry): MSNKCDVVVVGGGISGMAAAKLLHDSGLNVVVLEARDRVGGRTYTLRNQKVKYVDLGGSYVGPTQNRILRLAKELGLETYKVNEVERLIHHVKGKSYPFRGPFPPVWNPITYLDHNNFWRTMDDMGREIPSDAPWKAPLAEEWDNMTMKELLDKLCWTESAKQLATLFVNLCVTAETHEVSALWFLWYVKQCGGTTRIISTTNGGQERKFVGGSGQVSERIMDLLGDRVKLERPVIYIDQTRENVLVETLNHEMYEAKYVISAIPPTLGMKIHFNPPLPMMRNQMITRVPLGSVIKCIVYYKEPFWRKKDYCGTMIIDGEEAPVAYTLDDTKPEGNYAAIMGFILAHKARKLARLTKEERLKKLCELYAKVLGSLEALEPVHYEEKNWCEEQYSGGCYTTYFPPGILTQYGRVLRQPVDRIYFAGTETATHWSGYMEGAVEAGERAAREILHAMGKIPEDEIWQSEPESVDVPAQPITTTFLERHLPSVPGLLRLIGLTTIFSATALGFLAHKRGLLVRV

[2] = target: T1, Amine oxidase [flavin-containing] B; test: Inhibition of human MAO-B at 50 uM using benzylamine as substrate incubated for 30 mins by absorbance based analysis relative to control; settings: 0.5 h
[3] = target: T1, Amine oxidase [flavin-containing] B; test: Inhibition of human MAO-B by fluorescence spectrophotometry assay
[4] = target: T1, Amine oxidase [flavin-containing] B; test: Inhibition of human MAO-B using kynuramine as substrate incubated for 20 mins by fluorescence spectrophotometry assay
Homo sapiens [5] = organism: Homo sapiens; test: Selectivity index, ratio of IC50 for human MAO-A to IC50 for human MAO-B
[6] = target: T1, Amine oxidase [flavin-containing] B; test: Inhibition of human MAO-B
[7] = target: T1, Amine oxidase [flavin-containing] B; test: Inhibition of human MAO-B using kynuramine as substrate incubated for 20 mins by fluorescence based assay
Homo sapiens [8] = organism: Homo sapiens; test: Selectivity index, ratio of IC50 for human MAO-A to IC50 for human MAO-B by fluorescence based assay

IC50 [1]: < 100 nM
Structure (SMILES): COc1ccc(C(=O)/C=C/c2ccc(O/N=C3\CCc4ccccc43)cc2)cc1

IC50 [1]: > 200 nM
Structure (SMILES): COc1ccc(C(=O)/C=C/c2ccc(O/N=C(\C)c3ccc(OC)cc3)cc2)cc1

IC50 [1]: > 200 nM
Structure (SMILES): COc1ccc(C(=O)/C=C/c2ccc(O/N=C(\C)c3ccccc3)cc2)cc1

IC50 [3]: 32900 nM
Structure (SMILES): O=C(NCc1cnnn1Cc1ccc2oc(-c3ccc(Cl)cc3)cc(=O)c2c1)c1ccccc1

Ratio IC50 (Homo sapiens [5]): > 641
Structure (SMILES): O=C1/C(=C/c2ccc(Cl)cc2)COc2ccccc21

IC50 [1]: > 10000 nM
Structure (SMILES): O=C(/C=C/c1cccc(F)c1)c1ccc(-n2ccnc2)cc1

IC50 [3]: 32900 nM
Structure (SMILES): O=C(CCCCc1cn(Cc2ccc3oc(-c4ccc(Cl)cc4)cc(=O)c3c2)nn1)Nc1ccc(F)cc1

IC50 [1]: < 100 nM
Structure (SMILES): COc1ccc(C(=O)/C=C/c2ccc(ON=C(c3ccccc3)c3ccccc3)cc2)cc1

IC50 [1]: < 50 nM
Structure (SMILES): O=C(/C=C/c1ccc(ON=C2CCCCC2)cc1)c1ccc(F)cc1

IC50 [7]: 780 nM
Structure (SMILES): Cc1ccc2c(ccn2-c2cc(=O)c3ccccc3o2)c1

inhibition at 50 µM [2]: < 75%
Structure (SMILES): CCN(CC)C(=O)Oc1ccc2c(c1)O/C(=C\c1ccc(N(CC)CC)cc1)C2=O

IC50 [3]: 15600 nM
Structure (SMILES): O=C(CCc1cn(Cc2ccc3oc(-c4ccccc4)cc(=O)c3c2)nn1)Nc1ccc(F)cc1

Ratio IC50 (Homo sapiens [5]): > 1000
IC50 [7]: < 100 nM
Structure (SMILES): O=C(/C=C/c1ccc(F)cc1)c1ccc2c(c1)OCO2

IC50 [4]: 6.4 nM
Structure (SMILES): O=C1/C(=C/c2ccc(Cl)c(Cl)c2)CCc2ccc(O)cc21

IC50 [1]: > 10000 nM
Structure (SMILES): O=C(/C=C/c1ccc(F)cc1)c1ccc(-n2ccnc2)cc1

IC50 [1]: > 10000 nM
Structure (SMILES): O=C(/C=C/c1ccc(C(F)(F)F)cc1)c1ccc(-n2ccnc2)cc1

IC50 [4]: 995 nM
Ratio IC50 (Homo sapiens [5]): > 105
Structure (SMILES): O=C1/C(=C/c2ccc(Cl)cc2)CCc2ccccc21

inhibition at 50 µM [2]: < 75%
Structure (SMILES): CCN(CC)C(=O)Oc1ccc2c(c1)O/C(=C\c1ccc(OC)cc1)C2=O

More lines, now with the values behind:

Structure (SMILES): O=C(/C=C/c1ccc([N+](=O)[O-])cc1)c1ccccc1
IC50 [1]: 29 nM

Structure (SMILES): CCN(CC)C(=O)Oc1ccc2c(c1)O/C(=C\c1ccc(OCCCN(C)C)cc1)C2=O
inhibition at 50 µM [2]: < 75%

Structure (SMILES): COc1ccc2c(c1)C(=O)/C(=C/c1ccccc1)CC2
IC50 [4]: 115 nM

Structure (SMILES): COc1cccc(/C=C/C(=O)c2ccc(O/N=C(\C)c3cccs3)cc2)c1
IC50 [1]: < 300 nM

Structure (SMILES): O=C(/C=C/c1cccc2c1OCO2)c1cccc(Br)c1
IC50 [6]: < 100 nM

Structure (SMILES): COc1ccc2c(c1)C/C(=C\c1ccccn1)C2=O
IC50 [7]: < 500 nM

Structure (SMILES): COc1cc(O)c(C(=O)/C=C/c2ccccc2)c(O)c1
Ratio IC50 (Homo sapiens [8]): 0.63

Structure (SMILES): Nc1ccc2c(c1)CC/C(=C\c1ccccc1)C2=O
IC50 [4]: 115 nM

Structure (SMILES): CCOc1ccc(C(=O)/C=C/c2ccc(CC)cc2)cc1
IC50 [1]: 210 nM

Structure (SMILES): O=C1/C(=C/c2ccccc2)CCc2ccc(O)cc21
IC50 [4]: 115 nM

Structure (SMILES): CCOc1ccc(C(=O)/C=C/c2ccccc2)cc1
IC50 [1]: 210 nM
Ratio IC50 (Homo sapiens [5]): 51

Structure (SMILES): O=C1CC(n2ccc3ccccc32)Oc2ccccc21 (configuration not stated)
Ratio IC50 (Homo sapiens [5]): 2.4
IC50 [7]: 2300 nM

Structure (SMILES): CCOc1ccc(C(=O)/C=C/c2ccc(C)cc2)cc1
IC50 [1]: 210 nM

Structure (SMILES): O=C1/C(=C/c2ccccc2)CCc2ccccc21
IC50 [4]: 115 nM

Structure (SMILES): CCOc1ccc(C(=O)/C=C/c2ccc(N(C)C)cc2)cc1
IC50 [1]: 210 nM

Structure (SMILES): O=C(/C=C/c1cccc2c1OCO2)c1ccc(Br)cc1
IC50 [6]: < 100 nM

Structure (SMILES): O=C1/C(=C/c2ccccc2)CCc2c(O)cccc21
IC50 [4]: 115 nM

Structure (SMILES): CCOc1ccc(C(=O)/C=C/c2ccc(C(F)(F)F)cc2)cc1
IC50 [1]: 210 nM

Structure (SMILES): CCN(CC)C(=O)Oc1ccc2c(c1)O/C(=C\c1ccc(OCCN3CCCCC3)cc1)C2=O
inhibition at 50 µM [2]: < 75%

Structure (SMILES): COc1ccc2c(c1)C/C(=C\c1cccnc1)C2=O
IC50 [7]: < 500 nM

Structure (SMILES): O=C(/C=C/c1cccc(F)c1)c1ccc(N2CCOCC2)cc1
IC50 [1]: > 87 nM
Ratio IC50 (Homo sapiens [5]): 517

Structure (SMILES): Cc1ccc(/C=C/C(=O)c2ccc3c(c2)OCCO3)cc1
IC50 [6]: 3.4 nM

Structure (SMILES): CCOc1ccc(C(=O)/C=C/c2ccc(OC)cc2)cc1
IC50 [1]: 210 nM

Structure (SMILES): COc1ccc(/C=C/C(=O)c2ccc(ON=C3CCCCC3)cc2)cc1
IC50 [1]: < 300 nM
